For assay [1], the system named is Leishmania donovani. The assay is described as follows: In-vitro antileishmanial activity was tested against intracellular amastigotes of Leishmania donovani at dose 50 ug/mL; Toxic. The format is functional, organism-based.
Assay [2] deals with Leishmania donovani. The assay is described as follows: In-vitro antileishmanial activity was tested against extracellular promastigotes of Leishmania donovani at dose of 50 ug/mL. The format is functional.
Assay [3] concerns Leishmania donovani. Nature of the assay: In-vitro antileishmanial activity was tested against intracellular amastigotes of Leishmania donovani at dose 5 ug/mL. In kind it is functional.
For assay [4], the system named is Leishmania donovani. The assay is described as follows: In-vitro antileishmanial activity was tested against extracellular promastigotes of Leishmania donovani at dose of 5 ug/mL. In kind it is functional.
Assay [5] has as its system Leishmania donovani. The assay is described as follows: In-vitro antileishmanial activity was tested against intracellular amastigotes of Leishmania donovani at dose 50 ug/mL. The format is functional.
The subject of assay [6] is Leishmania donovani. The assay is described as follows: In-vitro antileishmanial activity was tested against intracellular amastigotes of Leishmania donovani at dose 50 ug/mL; IA is inactive. The format is functional, organism-based.
Assay [7] deals with Leishmania donovani. Nature of the assay: In-vitro antileishmanial activity was tested against extracellular promastigotes of Leishmania donovani at dose of 50 ug/mL; IA is inactive. In kind it is functional, organism-based.

Calls of active or inactive are those of the source. The calls are words filed in the database; no cut-off is given here.

For `CC1(C)C=Cc2c(ccc(C(=O)CCc3ccc(O)cc3)c2O)O1`, the inhibition result in assay [1] is “Toxic”. The compound also registered an inhibition at 50 µg/mL in assay [2] of 89%.

With `N=C(N)c1ccc(OCCCCCOc2ccc(C(=N)N)cc2)cc1` [PENTAMIDINE], the inhibition at 5 µg/mL in assay [3] amounted to 50%; in assay [4] it was 97%.

On to `COc1ccc(/C=C/C(=O)c2ccc(O)cc2O)cc1`, for which the inhibition at 50 µg/mL turned out to be 60% in assay [2] and 15% in assay [5].

Regarding `CC1(C)C=Cc2c(ccc(C(=O)CCc3ccc(O)c(O)c3)c2O)O1`, the inhibition at 50 µg/mL in assay [2] is 30%. Besides, in assay [6], the inhibition result is “inactive”.

On to `COc1ccc(CCC(=O)c2ccc(O)cc2O)cc1OC`, for which the inhibition entry in assay [1] is “Toxic”. For the same compound, the inhibition at 50 µg/mL in assay [2] was 79%.

Consider Stibanate, for which the inhibition entry in assay [7] is “inactive”. In addition, the inhibition in assay [5] was determined as 85%.

Turning to `CC1(C)C=Cc2c(ccc(C(=O)/C=C/c3ccc(O)cc3)c2O)O1`, the inhibition at 50 µg/mL in assay [2] stood at 84%; in assay [5], 74%.

`COc1ccc(CCC(=O)c2ccc3c(c2O)C=CC(C)(C)O3)cc1OC`: the inhibition entry in assay [7] was “inactive”. For the same compound, in assay [5], the inhibition at 50 µg/mL was 22%.

Turning to `COc1ccc(/C=C/C(=O)c2ccc3c(c2O)C=CC(C)(C)O3)cc1`, the inhibition at 50 µg/mL in assay [2] is 85%; in assay [5] it was 53%.

As for `COc1ccc(CCC(=O)c2ccc3c(c2O)C=CC(C)(C)O3)cc1`, the values for the inhibition at 50 µg/mL in assay [2] and in assay [5] were 78% and 47%, respectively.

By inhibition is commonly meant the change of the read-out against control, counted positive when it falls.

The values above are taken from ChEMBL document CHEMBL1137113, “A convenient and biogenetic type synthesis of few naturally occurring chromeno dihydrochalcones and their in vitro antileishmanial activity” (2004).
